Laboratory results reported in patent US20160067212A1, “USE OF INSULIN SIGNALING ANTAGONISTS, OPTIONALLY IN COMBINATION OF TRANSFECTION OF NON-BETA CELLS, FOR INDUCING INSULIN PRODUCTION” (UNIVERSITE DE GENEVE, priority 2013, published 2016).
Entries after “also recorded” stand apart in the source; their conditions may differ. Bridges are numbered along the chain shown (N, C = ends). Where no end group is shown, it is not given here.

Experiments:
Pdx1-expressing α-cells = assay: Insulin production in Pdx1-expressing α-cells of adult mice with normal β-cell mass after in vivo inhibition of insulin signaling; conditions: in vivo administration to mice expressing Pdx1 in α-cells; FIG. 7B
Experimental: (§1) DT (Sigma) was administrated by intra-peritoneal (i.p.) injections as previously described (Thorel et al., 2010, supra). DOX (1 mg/ml; Sigma) was added to the drinking water. S961 (Novo-Nordisk) (Vikram and Jena, 2010, Biochem Biophys Res Commun. 398(2):260-5) was injected intravenously (i.v.) twice a day at 200-nmol/kg-body weight, for 4 consecutive days. PPP (Santa-Cruz) and Wortmannin (Sigma) were injected i.p. once a day for 5 consecutive days at 10-mg/kg-body weight and 1-mg/kg-body weight, respectively. Mice received subcutaneous insulin pellets (Linbit) one week apart, if glycaemia exceeded 25 mM.
Pancreatic glucagon and insulin dosages (immunoassays), gene expression analyses by real time PCR as well as histological and morphometric analyses were performed as described (Herrera et al, 1991, Development. 113(4):1257-65; Strom et al, 2007, Development. 134(15):2719-25).
Cryostat sections were 10 μm-thick. The antibodies used were: rabbit and guinea pig anti-Pdx1 (kind gift of C. Wright, 1/5000 and 1/750 respectively), guinea pig anti-porcine insulin (DAKO, 1/400), mouse anti-porcine glucagon (1/1000), mouse anti-somatostatin (BCBC Ab1985, 1/200), rabbit anti-GFP (Molecular Probes, 1/400), rabbit anti-Cpeptide1 (BCBC Ab1044, 1/500), rabbit anti-Cpeptide2 (BCBC Ab1042, 1/500). […]

[1] = Peripheral action of S961 administered in vivo (glycemia); parameters: species or system mice; conditions: data not shown
Experimental: as §1
To test whether insulin deprivation in absence of β-cell loss can prime α-cells to insulin production, adult mice in which α-cells express Pdx1 (cPdx1OE) were treated with an insulin receptor antagonist, termed S961 (Novo Nordisk), to blunt insulin signaling in peripheral tissues as well as in pancreatic islets (FIG. 7A).
A 5-day treatment to healthy adult mice having a normal β-cell mass led to insulin production in some 18% of Pdx1-expressing α-cells (FIG. 7B). […] Next, the insulin receptor was conditionally inactivated in adult α-cells to assess whether local inhibition of insulin signaling, exclusively at the level of α-cells, is sufficient to prime those cells to insulin production. […]

insulin receptor = target: T1, insulin receptor (Rattus norvegicus, UniProt P15127); conditions: Vikram and Jena, 2010; cited from earlier work
T1 construct: host or cells: rats, in vivo (endogenous receptor)
T1 sequence (P15127 27-759 limits assumed): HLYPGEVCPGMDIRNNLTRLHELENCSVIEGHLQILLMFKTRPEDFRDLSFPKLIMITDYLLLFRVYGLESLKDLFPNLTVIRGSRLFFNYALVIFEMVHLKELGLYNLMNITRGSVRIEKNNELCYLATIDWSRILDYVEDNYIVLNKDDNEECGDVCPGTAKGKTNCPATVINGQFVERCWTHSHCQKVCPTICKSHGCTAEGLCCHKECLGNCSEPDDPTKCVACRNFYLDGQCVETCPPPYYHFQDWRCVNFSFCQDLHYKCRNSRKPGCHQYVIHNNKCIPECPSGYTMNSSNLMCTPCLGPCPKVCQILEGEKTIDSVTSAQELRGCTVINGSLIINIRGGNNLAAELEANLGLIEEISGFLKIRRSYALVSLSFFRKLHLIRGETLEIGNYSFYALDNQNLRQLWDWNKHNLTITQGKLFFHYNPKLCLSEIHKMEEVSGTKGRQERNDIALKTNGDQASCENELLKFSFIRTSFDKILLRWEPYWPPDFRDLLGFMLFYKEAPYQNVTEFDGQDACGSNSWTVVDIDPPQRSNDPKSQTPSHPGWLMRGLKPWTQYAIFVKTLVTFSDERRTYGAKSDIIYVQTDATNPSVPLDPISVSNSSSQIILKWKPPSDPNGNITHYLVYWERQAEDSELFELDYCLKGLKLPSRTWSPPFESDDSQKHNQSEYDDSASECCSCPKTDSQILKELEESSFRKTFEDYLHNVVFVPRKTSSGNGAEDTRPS
T1 sequence (P15127 764-1383 partner limits assumed): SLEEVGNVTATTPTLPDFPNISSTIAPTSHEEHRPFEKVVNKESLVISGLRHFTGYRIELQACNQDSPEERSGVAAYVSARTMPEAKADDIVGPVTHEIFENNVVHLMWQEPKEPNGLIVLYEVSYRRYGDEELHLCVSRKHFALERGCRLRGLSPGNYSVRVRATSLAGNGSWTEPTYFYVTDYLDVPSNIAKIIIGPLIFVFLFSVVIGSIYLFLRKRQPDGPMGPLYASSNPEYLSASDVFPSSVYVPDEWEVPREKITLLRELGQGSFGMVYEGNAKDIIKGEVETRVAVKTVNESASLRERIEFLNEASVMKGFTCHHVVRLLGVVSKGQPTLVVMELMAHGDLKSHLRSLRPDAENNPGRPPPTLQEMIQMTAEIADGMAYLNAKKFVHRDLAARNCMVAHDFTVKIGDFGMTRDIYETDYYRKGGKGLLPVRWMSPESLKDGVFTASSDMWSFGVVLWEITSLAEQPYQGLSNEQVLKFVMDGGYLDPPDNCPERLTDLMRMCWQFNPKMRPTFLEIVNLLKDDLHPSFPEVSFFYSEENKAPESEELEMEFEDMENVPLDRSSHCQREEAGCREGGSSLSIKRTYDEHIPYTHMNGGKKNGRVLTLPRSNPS

| effect on glycemia when administered in vivo [1] | Compound | insulin production triggered in Pdx1-expressing α-cells (in words) (Pdx1-expressing α-cells) | effects of S961 in rats (insulin receptor) |
| --- | --- | --- | --- |
|  | COC[C@H]1OC(=O)c2coc3c2[C@@]1(C)C1=C(C3=O)[C@@H]2CCC(=O)[C@@]2(C)C[C@H]1OC(C)=O [wortmannin] | triggers insulin production with similar efficiency; also recorded: produce insulin |  |
| induces hyperglycemia | GSLDESFYDWFERQLGGGSGGSSLEEEWAQIQCEVWGRGCPSY (disulfide 33-40) [S961] |  | hyperglycemia, hyperinsulinemia, insulin-resistance and depletion of energy stores |
